According to patent publication US10597388B2, “Pyridazinone herbicides” (FMC CORPORATION, priority 2014, dated 2020):

Tests used:
Type in all cases: in vivo
[1] = tested on: chickweed (common chickweed, Stellaria media); test: Test C greenhouse herbicide test, postemergence
Method in brief: (§1)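 Visual injury scores (0–100, where 100 means complete control) were assigned 13 to 15 d after postemergence application, by comparison with untreated plants. Treated seedlings stood 2 to 18 cm tall, at the 1- to 4-leaf stage.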

[2] = tested on: oat, wild (wild oat, Avena fatua); test: Test C greenhouse herbicide test, postemergence; settings: for Plant response rating, Oat, Wild: Postemergence
Method in brief: as §1

[3] = tested on: kochia (Kochia scoparia); test: Test C greenhouse herbicide test, postemergence; settings: for Plant response rating, Kochia: Postemergence
Method in brief: as §1

[4] = tested on: blackgrass (Alopecurus myosuroides); test: Test A greenhouse herbicide test, postemergence; settings: for Plant response rating, Blackgrass: 125 g ai/ha, 0 to 100 scale where 0 is no effect and 100 is complete control; for Blackgrass plant response rating: 500 g ai/ha, 0 to 100 scale, 0 is no effect, 100 is complete control
Method in brief: (§2)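 Plants grown in loam soil/sand blend pots were treated postemergence at 2 to 10 cm height, one- to two-leaf stage, with formulated test chemicals. After approximately 10 d in a greenhouse, injury was rated visually against untreated controls on a 0 to 100 scale (0 no effect, 100 complete control).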

[5] = tested on: galium (catchweed bedstraw, Galium aparine); test: Test A greenhouse herbicide test, postemergence
Method in brief: as §2

[6] = tested on: nutsedge, yellow (yellow nutsedge, Cyperus esculentus); test: Test C greenhouse herbicide test, pre- and postemergence
Source text: (§3) Seeds of plant species selected from blackgrass (Alopecurus myosuroides), ryegrass, Italian (Italian ryegrass, Lolium multiflorum), wheat (winter wheat, Triticum aestivum), galium (catchweed bedstraw, Galium aparine), corn (Zea mays), large crabgrass, large (large crabgrass, Digitaria sanguinalis), foxtail, giant (giant foxtail, Setaria faberii), johnsongrass (Sorghum halepense), lambsquarters (Chenopodium album), morningglory (Ipomoea coccinea), nutsedge, yellow (yellow nutsedge, Cyperus esculentus), pigweed (Amaranthus retroflexus), ragweed (common ragweed, Ambrosia elatior), soybean (Glycine max), barnyardgrass (Echinochloa crus-galli), oilseed rape (Brassica napus), waterhemp (common waterhemp, Amaranthus rudis), and velvetleaf (Abutilon theophrasti) were planted into a blend of loam soil and sand and treated preemergence with test chemicals formulated in a non-phytotoxic solvent mixture which included a surfactant.
(§4) At the same time, plants selected from these crop and weed species and also chickweed (common chickweed, Stellaria media), kochia (Kochia scoparia), and oat, wild (wild oat, Avena fatua), were planted in pots containing Redi-Earth® planting medium (Scotts Company, 14111 Scottslawn Road, Marysville, Ohio 43041) comprising spaghnum peat moss, vermiculite, wetting agent and starter nutrients and treated with postemergence applications of test chemicals formulated in the same manner. Plants ranged in height from 2 to 18 cm (1- to 4-leaf stage) for postemergence treatments. Treated plants and controls were maintained in a greenhouse for 13 to 15 d, after which time all species were compared to controls and visually evaluated. Plant response ratings, summarized in Table C, are based on a scale of 0 to 100 where 0 is no effect and 100 is complete control. A dash (-) response means no test result.

[7] = tested on: soybean (Glycine max); test: as above
Source text: as §3, §4

[8] = tested on: johnsongrass (Sorghum halepense); test: as above
Source text: as §3, §4

[9] = Postemergence, 125 g ai/ha, scale 0 to 100, 0 is no effect, 100 is complete control
[10] = Postemergence, 250 g ai/ha, scale 0 to 100, 0 no effect, 100 complete control, 13 to 15 d
[11] = postemergence, 62 g ai/ha, scale 0 to 100, 0 no effect, 100 complete control
[12] = 125 g ai/ha, scale 0 to 100, 0 is no effect, 100 is complete control
[13] = 250 g ai/ha, scale 0 to 100, 0 no effect, 100 complete control, 13 to 15 d
[14] = 125 g ai/ha, 0 to 100 scale where 0 is no effect and 100 is complete control
[15] = 500 g ai/ha, visual rating after approx. 10 d, 0 to 100 scale (0 no effect, 100 complete control)
[16] = Preemergence, 31 g ai/ha, scale 0 to 100, 0 is no effect, 100 is complete control
[17] = Preemergence, 62 g ai/ha, scale 0 to 100, 0 is no effect, 100 is complete control
[18] = Preemergence, 125 g ai/ha, scale 0 to 100, 0 is no effect, 100 is complete control
[19] = Preemergence, 250 g ai/ha, scale 0 to 100, 0 no effect, 100 complete control
[20] = Postemergence, 31 g ai/ha, scale 0 to 100 (0 no effect, 100 complete control)
[21] = 31 g ai/ha, scale 0 to 100 (0 no effect, 100 complete control)

| SMILES | Plant response rating, Chickweed [1, 9] | Plant response rating, Chickweed [1, 10] | Chickweed plant response rating [1, 11] | Plant response rating, Oat, Wild [2, 12] | Plant response rating, Oat, Wild [2, 13] | Plant response rating, Kochia [3, 12] | Plant response rating, Kochia [3, 13] | Plant response rating, Blackgrass [4] | Blackgrass plant response rating [4] | Plant response rating, Galium [5, 14] | Plant response rating, Galium [5, 15] | Plant response rating, Nutsedge, Yellow [6, 9] | Plant response rating, Nutsedge, Yellow [6, 10] | Plant response rating, Nutsedge, Yellow [6, 16] | Plant response rating, Nutsedge, Yellow [6, 17] | Plant response rating, Nutsedge, Yellow [6, 18] | Nutsedge, Yellow plant response rating [6, 19] | Plant response rating, Soybean [7, 9] | Plant response rating, Soybean [7, 10] | Plant response rating, Soybean [7, 16] | further results |
| --- | --- | --- | --- | --- | --- | --- | --- | --- | --- | --- | --- | --- | --- | --- | --- | --- | --- | --- | --- | --- | --- |
| COC(=O)Oc1cnn(C)c(=O)c1-c1c(C)sc2ccccc12 [Compound 97] | 15 | 60 | 0 | 5 | 10 | 70 | 85 | 90 | 90 | 100 | 100 | 0 | 5 | 0 | 0 | 0 | 0 | 5 | 5 | 15 | Chickweed plant response rating ([1]; Postemergence, 31 g ai/ha, 0 to 100 scale (0 no effect, 100 complete control)): 0; Oat, Wild plant response rating [2, 11]: 5; Kochia plant response rating [3, 11]: 0; Nutsedge, Yellow plant response rating [6, 11]: 0; Plant response rating, Soybean [7, 17]: 10; Plant response rating, Soybean [7, 18]: 10; Soybean plant response rating [7, 19]: 20; Soybean plant response rating [7, 11]: 0; Plant response rating, Johnsongrass [8, 9]: 0; Plant response rating, Johnsongrass [8, 10]: 5; Plant response rating, Johnsongrass [8, 16]: 0; Plant response rating, Johnsongrass [8, 17]: 0; Plant response rating, Johnsongrass [8, 18]: 0; Johnsongrass plant response rating [8, 19]: 0; Johnsongrass plant response rating [8, 11]: 0 |
| CCCC(=O)Oc1c(C)nn(C)c(=O)c1-c1c(C)sc2ccc(C)cc12 [Compound 105] | 98 | 100 | 95 | 90 | 90 | 95 | 100 | 80 | 90 | 100 | 100 | 75 | 90 | 40 | 45 | 40 | 85 | 10 | 40 | 0 | Plant response rating, Chickweed [1, 20]: 90; Plant response rating, Oat, Wild [2, 21]: 60; Plant response rating, Kochia [3, 21]: 95; Plant response rating, Nutsedge, Yellow [6, 20]: 55; Plant response rating, Soybean [7, 20]: 5; Plant response rating, Soybean [7, 17]: 0; Plant response rating, Soybean [7, 18]: 0; Soybean plant response rating [7, 19]: 0; Plant response rating, Johnsongrass [8, 20]: 5; Plant response rating, Johnsongrass [8, 9]: 0; Plant response rating, Johnsongrass [8, 10]: 0; Plant response rating, Johnsongrass [8, 16]: 10; Plant response rating, Johnsongrass [8, 17]: 20; Plant response rating, Johnsongrass [8, 18]: 20; Johnsongrass plant response rating [8, 19]: 60 |
